Test results: ChEMBL document CHEMBL1131908 (Bioorg Med Chem Lett, 1999)

Columns and labels:
[1] = molecular target: T1, Delta-type opioid receptor (Rattus norvegicus, UniProt P33533); assay: Ability to displace [3H]DADL from delta opioid receptor
[2] = molecular target: T2, Kappa-type opioid receptor (Cavia porcellus, UniProt P41144); assay: Ability to displace [3H]U-69593 from kappa opioid receptor
[3] = molecular target: T3, Mu-type opioid receptor (Rattus norvegicus, UniProt P33535); assay: Ability to displace [3H]DAMGO from mu opioid receptor
[4] = molecular target: Opioid receptors; mu & delta (Homo sapiens) (UniProt P41143+P35372); assay: Ratio of binding affinities of mu and delta opioid receptors; format: protein assay
[5] = molecular target: T1, Delta-type opioid receptor; assay: Ability to inhibit binding of SNC80 to delta opioid receptor
[6] = molecular target: T2, Kappa-type opioid receptor; assay: Ability to inhibit binding of U-69,593 to kappa opioid receptor
[7] = molecular target: T3, Mu-type opioid receptor; assay: Ability to inhibit binding of [3H]DAMGO to mu opioid receptor

Sequence of Opioid receptors; mu & delta (Homo sapiens) (P35372 whole entry, looked up): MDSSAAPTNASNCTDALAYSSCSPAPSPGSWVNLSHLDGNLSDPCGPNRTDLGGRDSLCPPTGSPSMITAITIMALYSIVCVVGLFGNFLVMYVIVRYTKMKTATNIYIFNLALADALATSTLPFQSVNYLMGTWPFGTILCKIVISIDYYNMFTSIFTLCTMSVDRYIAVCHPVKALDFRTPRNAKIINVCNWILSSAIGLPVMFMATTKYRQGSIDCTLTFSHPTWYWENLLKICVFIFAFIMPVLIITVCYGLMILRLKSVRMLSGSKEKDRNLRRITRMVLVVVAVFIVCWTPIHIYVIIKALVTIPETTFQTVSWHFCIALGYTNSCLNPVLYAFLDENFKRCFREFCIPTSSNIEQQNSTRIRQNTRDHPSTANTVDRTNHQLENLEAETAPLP
Sequence of Opioid receptors; mu & delta (Homo sapiens) (P41143 whole entry, looked up): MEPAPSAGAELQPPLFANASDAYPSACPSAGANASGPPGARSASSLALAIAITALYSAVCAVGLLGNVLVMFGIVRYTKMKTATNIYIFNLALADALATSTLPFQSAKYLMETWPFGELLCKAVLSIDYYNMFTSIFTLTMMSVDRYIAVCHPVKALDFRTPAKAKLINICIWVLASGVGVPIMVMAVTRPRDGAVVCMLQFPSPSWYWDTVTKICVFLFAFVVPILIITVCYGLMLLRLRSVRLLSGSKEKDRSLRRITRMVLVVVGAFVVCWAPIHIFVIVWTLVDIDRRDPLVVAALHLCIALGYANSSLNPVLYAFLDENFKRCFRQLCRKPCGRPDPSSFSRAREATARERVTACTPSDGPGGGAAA
T3 sequence (P33535 whole entry): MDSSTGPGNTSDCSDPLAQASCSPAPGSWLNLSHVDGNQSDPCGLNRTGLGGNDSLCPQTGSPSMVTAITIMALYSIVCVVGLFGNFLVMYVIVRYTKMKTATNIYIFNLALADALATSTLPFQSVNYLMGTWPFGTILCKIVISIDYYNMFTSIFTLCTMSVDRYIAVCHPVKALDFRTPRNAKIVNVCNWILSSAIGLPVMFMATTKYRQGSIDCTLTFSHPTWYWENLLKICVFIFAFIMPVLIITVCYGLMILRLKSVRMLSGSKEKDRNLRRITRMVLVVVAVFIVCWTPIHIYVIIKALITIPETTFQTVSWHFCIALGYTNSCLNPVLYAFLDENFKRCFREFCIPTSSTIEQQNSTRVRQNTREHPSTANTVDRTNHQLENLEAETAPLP
T1 sequence (P33533 whole entry): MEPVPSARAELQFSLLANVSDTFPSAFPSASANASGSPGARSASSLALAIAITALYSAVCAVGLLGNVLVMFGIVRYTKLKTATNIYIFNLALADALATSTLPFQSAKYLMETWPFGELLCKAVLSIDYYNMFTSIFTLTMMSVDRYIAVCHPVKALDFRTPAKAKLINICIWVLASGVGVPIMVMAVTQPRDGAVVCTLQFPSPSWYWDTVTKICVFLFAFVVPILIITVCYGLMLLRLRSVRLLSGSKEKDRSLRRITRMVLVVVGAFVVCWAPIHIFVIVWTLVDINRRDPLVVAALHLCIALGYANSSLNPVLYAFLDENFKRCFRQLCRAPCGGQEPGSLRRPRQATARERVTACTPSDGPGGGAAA
T2 sequence (P41144 whole entry): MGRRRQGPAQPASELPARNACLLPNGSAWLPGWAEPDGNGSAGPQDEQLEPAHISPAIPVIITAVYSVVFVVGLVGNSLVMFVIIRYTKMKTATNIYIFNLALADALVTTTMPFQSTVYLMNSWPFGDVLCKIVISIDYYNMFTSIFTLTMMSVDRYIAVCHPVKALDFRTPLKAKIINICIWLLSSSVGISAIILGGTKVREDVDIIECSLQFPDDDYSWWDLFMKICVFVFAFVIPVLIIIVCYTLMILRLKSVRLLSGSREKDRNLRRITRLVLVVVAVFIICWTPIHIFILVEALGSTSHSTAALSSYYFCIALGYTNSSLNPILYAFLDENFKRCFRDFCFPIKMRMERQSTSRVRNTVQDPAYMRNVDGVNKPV

Row | SMILES | Ki [1] | Ki [2] | Ki [3] | Ratio [4] | Ki [5] | Ki [6] | Ki [7]
1 | O[C@@]12Cc3c([nH]c4ccccc34)C3Oc4c(OCc5ccccc5)ccc5c4[C@@]31CCN(CC1CC1)[C@@H]2C5 (some centres undefined) | 103 nM | 728 nM | 396 nM | 4 |  |  | 
2 | COc1ccc2c3c1OC1c4[nH]c5ccccc5c4C[C@@]4(O)[C@@H](C2)N(CC2CC2)CC[C@]314 (some centres undefined) | 6.57 nM | 3910 nM | 2510 nM |  | 9 nM | 1760 nM | 411 nM
3 | O[C@@]12Cc3c([nH]c4ccccc34)C3Oc4c(OCCc5ccccc5)ccc5c4[C@@]31CCN(CC1CC1)[C@@H]2C5 (some centres undefined) | 1040 nM | > 7040 nM | > 6250 nM | 7 |  |  | 
4 | O[C@@]12Cc3c([nH]c4ccccc34)C3Oc4c(OCCCc5ccccc5)ccc5c4[C@@]31CCN(CC1CC1)[C@@H]2C5 (some centres undefined) | 99 nM | > 5320 nM | > 6250 nM | 54 |  |  | 
5 | Oc1ccc2c3c1O[C@H]1c4[nH]c5ccccc5c4C[C@@]4(O)[C@@H](C2)N(CC2CC2)CC[C@]314 [NALTRINDOLE] |  |  |  |  | 0.062 nM |  | 
